In one data set the test system is 5637R. The data set can be described thus: MTT assay IC50, oxaliplatin-resistant bladder cancer sub-line. The format is cell-based, human. The following applies: 5637R, 72 hours. The method, then:
Drug-DNA adduct formation and repair was measured by accelerator mass spectrometry.
To confirm that 5637 was the original ATCC cell line, and that 5637R originated from the parental 5637 cell line, both cultures were sent to the ATCC Cell Line Authentication Service for cell verification per the ATCC protocol. More specifically, fifteen short tandem repeat (STR) loci plus the gender determining locus, amelogenin, were amplified using the commercially available PowerPlex® 16HS Kit from Promega.
These two cell lines were also cultured with a range of concentrations of cisplatin, carboplatin, gemcitabine, doxorubicin, methotrexate and vinblastine for 72 hours to determine IC50 for these other drugs (FIG. 16C). These drugs were chosen because of their frequent use in the treatment of bladder cancer.
A general note: Tetrazolium dyes change colour on reduction, which living cells bring about.

Data set [1] deals with PDX Model BL0269. The experiment in a line: PDX tumor growth under chemotherapy. Particulars: cisplatin 2 mg/kg IV Q7Dx3, gemcitabine 150 mg/kg IP Q7Dx4. It counts as in vivo, NSG mice. The protocol: (§1) Female NSG mice (5-8 weeks of age, body weight: 20 to 25 g) were obtained from Jackson Laboratories (CA, USA). […] To establish multiple PDXs to allow efficacy studies with multiple drugs, PDXs from passage 2-4 were minced into 1 mm^3 sections and injected subcutaneously into multiple mice. […] G/C combination chemotherapy consisted of the simultaneous administration of both drugs using the schema described above. Tumor growth was assessed by measuring palpable tumors with a caliper and calculating tumor volume. […] DNA was isolated using a modified Wizard procedure (Promega), quantitated by spectrophotometry, and then stored frozen at −20° C. until AMS analysis. […] Primary tumor tissue from four bladder cancer patients were implanted in NSG mice to create the PDX models described in Table 5. […] Of the four distinct tumors tested in the PDX model, three were resistance to cisplatin (BL0269, BL0293, BL0645) and two were resistance to gemcitabine (BL0269, BL0645) as single agent therapies.

Data set [2] has as its system PDX Model BL0440. The experiment in a line: PDX tumor growth under chemotherapy. The format is in vivo, NSG mice. The following applies: cisplatin 2 mg/kg IV Q7Dx3, gemcitabine 150 mg/kg IP Q7Dx4. The method, then:
as §1

For data set [3], the system named is PDX Model BL0293. The data set can be described thus: PDX tumor growth under chemotherapy. The format is in vivo, NSG mice. Particulars: cisplatin 2 mg/kg IV Q7Dx3, gemcitabine 150 mg/kg IP Q7Dx4. The method, then: as §1
Data set [4] deals with PDX Model BL0645. The data set can be described thus: PDX tumor growth under chemotherapy. It counts as in vivo, NSG mice. The following applies: cisplatin 2 mg/kg IV Q7Dx3, gemcitabine 150 mg/kg IP Q7Dx4. The method, then: as §1
In the next data set the test system is RT4. The experiment in a line: MTT assay IC50, bladder cancer cell line. It counts as cell-based. From the text:
(§2) If these diadducts are the predominant DNA lesion responsible for cell death, then the IC50 of the two drugs should be linearly related. Thus, we measured the IC50 of the six NSCLC cell lines from Example 2 to both cisplatin and carboplatin to determine if the sensitivity of these six NSCLC cell lines to the two drugs are correlated. We observed a statistically significant linear correlation of the cytotoxicity of these two drugs in the 6 cell lines used in this study (R^2=0.72, p=0.033, FIG. 9A) and also to six additional ATCC bladder cancer cell lines. (R^2=0.72, p=0.033), FIG. 9B).

The subject of the next data set is T24. The experiment in a line: MTT assay IC50, bladder cancer cell line. It counts as cell-based.
Text: as §2

The test system of the next data set is J82. The experiment in a line: MTT assay IC50, bladder cancer cell line. The format is cell-based.
Text: as §2

The next data set has as its system TCCSUP. The data set can be described thus: MTT assay IC50, bladder cancer cell line. The format is cell-based.
Text: as §2

A further data set deals with HT1197. The data set can be described thus: MTT assay IC50, bladder cancer cell line. The format is cell-based.
Text: as §2

The next data set concerns H23. The data set can be described thus: MTT assay IC50. The format is cell-based, human. The method, then: (§3) Six non-small cell lung cancer (NSCLC) cell lines were treated in culture with [^14C]carboplatin. Carboplatin-DNA monoadduct levels over time were determined by measuring ^14C content in genomic DNA with accelerator mass spectrometry (AMS). Cellular sensitivity to carboplatin and cisplatin was analyzed by the MTT assay (Henderson et al., International Journal of Cancer 2011).
(§4) Human NSCLC cell lines H23, H460, H727, HCC827, H1975, and A549 were purchased from ATCC and were cultured with the recommended medium. The MTT assay was performed as previously reported to determine the drug concentration required to inhibit cell growth by 50% (IC50) of cisplatin and carboplatin. [^14C]Carboplatin (at 53 mCi/mmol) was mixed with unlabeled carboplatin to achieve the specific activities required for microdoses and therapeutic doses. Table 1 lists the six NSCLC cell lines and summarizes their IC50 characteristics, induced carboplatin-DNA monoadducts when treated with [^14C]carboplatin, and p and r^2 values for correlation analysis to the IC50 concentrations.

A further data set deals with H1975. The experiment in a line: MTT assay IC50. The format is cell-based, human. The protocol:
as §3, §4

For another data set, the system named is HCC827. The data set can be described thus: MTT assay IC50. It counts as cell-based, human. The protocol: as §3, §4
A further data set concerns H727. The experiment in a line: MTT assay IC50. The format is cell-based, human. The method, then: as §3, §4
The test system of a further data set is H460. The experiment in a line: MTT assay IC50. The format is cell-based, human. The protocol:
as §3, §4

The conditions of data set [5]: IV dose of 1000 mg/m^2 over 30 minutes; cited from earlier work.
For data set [6], the system named is PDX Model BL0440. The data set can be described thus: drug-DNA adducts in PDX tumor by AMS. The format is in vivo, NSG mice. Particulars: microdose 0.092 mg/kg gemcitabine, 24 h. From the text: (§5) Female NSG mice (5-8 weeks of age, body weight: 20 to 25 g) were obtained from Jackson Laboratories (CA, USA). All animals were kept under pathogen-free conditions and were allowed to acclimatize for at least 4 days prior to any experiments. PDX models bearing the indicated patient derived xenografts were created by subcutaneous injection at the flank of 1 mm^3 tumor tissue. To establish multiple PDXs to allow efficacy studies with multiple drugs, PDXs from passage 2-4 were minced into 1 mm^3 sections and injected subcutaneously into multiple mice. At least 3 mice were used for each treatment group. Tumors were allowed to grow to at about 100 mm^3 before being assessed for drug sensitivity or the induction of DNA adducts by the administration of a microdose or a therapeutic dose of labeled drug. To assess tumor response to chemotherapy, cisplatin was administered at 2 mg/kg IV every 7 days for a total of 3 cycles, or gemcitabine was administered at 150 mg/kg IP every 7 days for a total of 4 cycles. G/C combination chemotherapy consisted of the simultaneous administration of both drugs using the schema described above. Tumor growth was assessed by measuring palpable tumors with a caliper and calculating tumor volume. Drug-DNA adduct frequencies were measured in tumor tissue collected 24 hours after intravenous injection of labeled drug and stored at −80° C. until DNA isolation. DNA was isolated using a modified Wizard procedure (Promega), quantitated by spectrophotometry, and then stored frozen at −20° C. until AMS analysis. Ten micrograms of DNA per sample was converted to graphite and measured by AMS for 14C quantification as previously described.
(§6) NSG mice bearing the indicated PDX tumors were injected with a microdose of ^14C-labeled carboplatin (FIG. 22A) or ^14C-labeled gemcitabine (FIG. 22B). The microdose of ^14C-labeled carboplatin was 0.375 mg/kg carboplatin, 50,000 dpm/g. The microdose of ^14C-labeled gemcitabine was 0.092 mg/kg gemcitabine, 1000 dpm/g. The doses of each drug administered to the mice were chosen to target 1 μM in plasma concentration of carboplatin and 0.3 μM in plasma concentration of gemcitabine. These plasma concentrations represent 1% of the approximate peak plasma concentration during human chemotherapy. Animals were sacrificed after 24 h and drug-DNA adduct frequency was determined from collected tumor tissue by AMS measurements of ^14C in tumor DNA. Carboplatin DNA-adduct levels correlate with PDX model sensitivity to cisplatin at 24 h after microdosing (FIG. 22A). Gemcitabine DNA-adduct levels correlate with PDX model sensitivity to gemcitabine at 24 h after microdosing (FIG. 22B). […] There is no significant difference in carboplatin-DNA monoadduct levels between the three resistant PDX models. […]

The test system of data set [7] is PDX Model BL0293. The data set can be described thus: drug-DNA adducts in PDX tumor by AMS. The format is in vivo, NSG mice. The following applies: microdose 0.092 mg/kg gemcitabine, 24 h.
Text: as §5, §6

The subject of data set [8] is 5637 and 5637R cell lines. The data set can be described thus: gemcitabine incorporation into DNA by AMS. The format is cell-based, human. The protocol: The two cell lines were cultured as described above in Example 11. [^14C]Gemcitabine (FIG. 19) was labeled at position 2 (on the aromatic nucleobase) with a specific activity of 58.8 mCi/mmol (purchased from Moravek Biochemical). Unlabeled gemcitabine (USP Pharmaceutical Grade) was mixed with the labeled gemcitabine to achieve the correct specific activity for this experiment. […] This microdose is approximately 0.1% of a therapeutically relevant concentration. Cells were sampled for DNA extraction and AMS analysis of ^14C in DNA over 24 hours.

Data set [9] concerns PDX Model BL0269. The experiment in a line: drug-DNA adducts in PDX tumor by AMS. The format is in vivo, NSG mice.
Text: as §5
(§7) NSG mice bearing the indicated PDX tumors were injected with a microdose of ^14C-labeled carboplatin (FIG. 22A) or ^14C-labeled gemcitabine (FIG. 22B). The microdose of ^14C-labeled carboplatin was 0.375 mg/kg carboplatin, 50,000 dpm/g. The microdose of ^14C-labeled gemcitabine was 0.092 mg/kg gemcitabine, 1000 dpm/g. The doses of each drug administered to the mice were chosen to target 1 μM in plasma concentration of carboplatin and 0.3 μM in plasma concentration of gemcitabine. These plasma concentrations represent 1% of the approximate peak plasma concentration during human chemotherapy. Animals were sacrificed after 24 h and drug-DNA adduct frequency was determined from collected tumor tissue by AMS measurements of ^14C in tumor DNA. Carboplatin DNA-adduct levels correlate with PDX model sensitivity to cisplatin at 24 h after microdosing (FIG. 22A). Gemcitabine DNA-adduct levels correlate with PDX model sensitivity to gemcitabine at 24 h after microdosing (FIG. 22B). […] There is no significant difference in carboplatin-DNA monoadduct levels between the three resistant PDX models. […] We conclude that microdose induced carboplatin-DNA monoadducts predicts sensitivity to cisplatin chemotherapy, and microdose induced gemcitabine incorporation predicts sensitivity to gemcitabine chemotherapy.
(§8) In this example we test whether gemcitabine/carboplatin (G/Carbo) combination therapy has an effect on the formation of drug-DNA adducts in this synergistic tumor model. In FIG. 23A, NGS mice bearing BL0645 xenographs were administered via tail vein injection a therapeutic dose of [^14C]carboplatin alone or a therapeutic dose of [^14C]carboplatin in combination with a therapeutic dose of gemcitabine. Carboplatin-DNA monoadducts were measured in tumor tissue 24 h after dosing. A therapeutic dose of the combination [^14C]carboplatin plus unlabeled gemcitabine leads to a significant increase in carboplatin-DNA monoadduct level (94.84±16.02 versus 209.6±64.66 adducts per 10^8 nucleotides, p=0.032) compared to treatment with carboplatin alone. In FIG. 23B, the same experiment was conducted in which the mice received a therapeutic dose of [^14C]gemcitabine alone or a therapeutic dose of [^14C]gemcitabine in combination with a therapeutic dose of unlabeled carboplatin. […]

Data set [10] has as its system PDX Model BL0645. The experiment in a line: drug-DNA adducts in PDX tumor by AMS. The format is in vivo, NSG mice. Particulars: 24 h.
Text: as §5, §7, §8

`N.N.[Cl][Pt][Cl]` [cisplatin]: the IC50 – broadly, the concentration needed to halve the response being measured – in the data set with 5637R was 2.99 µM; in the data set with RT4 it was 8.35 ± 0.01 µM; in the data set with T24, 5.28 ± 0.04 µM; in the data set on J82 it was 12.6 ± 1.17 µM; with TCCSUP, 11.7 ± 1.63 µM; in the data set on HT1197, 6.2 ± 0.03 µM. Moreover, the IC50 in the data set on H23 was 4.23 µM; in the data set with H1975, 14.5 µM; in the data set with HCC827, 18.2 µM; with H727 it was 20 µM; in the data set on H460 it was 3.53 µM. The “Xenograph Sensitivity” value with PDX Model BL0269 [1] was “RES”; in the data set with PDX Model BL0440 [2], “SEN”; in the data set with PDX Model BL0293 [3], “RES”; in the data set on PDX Model BL0645 [4], “RES”.
For `Nc1ccn([C@@H]2O[C@H](CO)[C@@H](O)C2(F)F)c(=O)n1` [gemcitabine], the “Xenograph Sensitivity” value with PDX Model BL0269 [1] was “RES”; in the data set with PDX Model BL0440 [2] it was “SEN”; with PDX Model BL0293 [3], “SEN”; in the data set on PDX Model BL0645 [4], “RES”. Further, the plasma concentration entry in [5] is “about 30 μM”. Also, the plasma half-life entry in [5] is recorded as “about 60 minutes”. Moreover, the gemcitabine adduct levels amounted to 13.1±10.2 in the data set with PDX Model BL0440 [6]; 10.0±5.92 with PDX Model BL0293 [7]; 3.17±0.278 in the data set on PDX Model BL0269 [9] (microdose 0.092 mg/kg gemcitabine, 24 h (FIG. 22B)). Besides, in data set [8] (0.03 μM 4 hours, at 24 hours), the “gemcitabine incorporation in 5637R compared to parental 5637 cells” value is given as “much lower gemcitabine incorporation”. In addition, the “cytotoxicity of subtherapeutic dose” value in data set [8] (0.03 μM for 4 hours) was “no cytotoxicity”. Further, the gemcitabine-DNA adduct levels with PDX Model BL0269 [9] (control experiment FIG. 23F, microdose single agent or G/Carbo combination) is 2.44±0.492 adducts per 10^8 nucleotides. In the data set with PDX Model BL0645 [10] (microdose 0.092 mg/kg gemcitabine alone or with carboplatin 0.375 mg/kg), the gemcitabine adducts is recorded as 2.44±0.880 adducts per 10^8 nucleotides. The gemcitabine adduct level with PDX Model BL0645 [10] (therapeutic 9.2 mg/kg gemcitabine alone or with carboplatin 37.5 mg/kg) is given as 169.2±9.129 adducts per 10^8 nucleotides.

The values above are taken from US20200010910A1, “Cytotoxic Chemotherapy-Based Predictive Assays for Acute Myeloid Leukemia” (The Regents of The University of California, priority 2017, published 2020).
